≈ marks a conversion by molar mass, not a printed value.
Columns and labels:
Solubility in acetone = type: physicochemical; details: acetone at 25° C.
Solubility in water = type: physicochemical

SMILES: CCC(=O)O[C@]1(C(=O)SCF)[C@H](C)C[C@H]2[C@@H]3C[C@H](F)C4=CC(=O)C=C[C@]4(C)[C@@]3(F)[C@@H](O)C[C@@]21C [Fluticasone, (6S,8S,9R,10S,11S,13S,14S,16R,17R)-6,9-difluoro-17-(((fluoromethyl)thio)carbonyl)-11-hydroxy-10,13,16-trimethyl-3-oxo-6,7,8,9,10,11,12,13,14,15,16,17-dodecahydro-3H-cyclopenta[a]phenanthren-17-yl propionate]
- solubility in acetone (Solubility in acetone): 9000 µg/mL (≈ 18 mM)
- solubility in water (in words) (Solubility in water; water): practically insoluble in water
- solubility (Solubility in water; water at 25° C.): < 1 µg/mL

From patent US11364203B2, “Process for forming active domains dispersed in a matrix” (Bend Research, Inc., priority 2014, dated 2022)
